Source: patent US20240050440A1, “THERAPEUTIC TARGETS AND AGENTS FOR THE TREATMENT OF TRIOSEPHOSPHATE ISOMERASE (TPI) DEFICIENCY” (University of Pittsburgh- Of The Commonwealth System of …, priority 2020, published 2024)
Where a SMILES comes first, the peptide text is derived from it. The star is where a group is joined. Cbz = O=C(OCc1ccccc1)*

Tests used:
[1] = system: TPI^E105D-GFP fusion protein; assay: HEK293 TPI^E105D-GFP high content assay (GFP intensity per cell); assay type: cell-based, human; conditions: for hit call in LOPAC screen: 10 μM, 48 hour condition; for repeat of hit activity in every condition: NIH Clinical Collection, 10 μM and 1 μM, 24 hours and 48 hours; for TPI^E105D-GFP fluorescence (in words): prescreen of putative protein stabilizing compounds, 48 hours
Description: HEK293 cells expressing a mutant (E105D) TPI-GFP fusion protein were created using the Flp-In System (Invitrogen, Catalog #K6010-01 and K6010-02) following the manufacturer's protocol. Briefly, a host cell line expressing the transfected Flp-In target site vector, pFRT/lacZeo, was obtained following zeocin resistance selection. TPI^E105D-GFP fusion construct was cloned into the pcDNA 5/FRT expression vector. Co-transfection of 0.1 μg of the pcDNA 5/FRT construct (390 ng/μL) and 0.9 μg of the Flp recombinase expression vector (pOG44, 127 ng/μL) into the Flp-In host cell line was performed with 3.75 μL Lipofectamine 2000 reagent (Invitrogen). A hygromycin dose response was performed to determine the minimum concentration of hygromycin B required to kill untransfected host cells. […] Expression of the TPI^E105D-GFP fusion protein was verified via Western blot. The cells were cultured using standard methods (37° C., 5% CO2) in normal media (DMEM with 10% serum, 100 U penicillin/100 μg streptomycin/ml (Lonza)). To document subcellular localization of mutant GFP-tagged TPI, nuclei were stained with Hoechst 33342 and imaged on an ImageXpress Ultra confocal high content reader in the UV and GFP channel, respectively. A z-series of images (60× objective, 90 planes, 0.3 μm z-steps) was acquired in both channels, and the color combined stack subjected to 3D reconstruction in MetaXpress. A single slice of the reconstructed image was chosen to illustrate the phenotype of mutant TPI-GFP expression.
HEK293 TPI^E105D-GFP cells were plated (50,000 cells/well in collagen-coated 96-well thin-bottom microplates and allowed to attach overhight. Cells were treated with four point, two-fold gradients of 5× treatment solutions of test agents (6 replicates per condition). The final concentration of vehicle was 0.2%. After 48 hours in culture, cells were preincubated with propidium iodide (PI) for 30 minutes and imaged live in the GFP and Texas Red channels on an ImageXpress Ultra high content reader (Molecular Devices) using a 20× objective Images were analyzed with the multiwavelength cell scoring application using GFP to define and enumerate cells. The integrated GFP intensity per cell was used to quantify mutant TPI expression; the number of cells was used as a proxy for growth inhibition and/or cell loss; and the percentage of cells that exceeded a threshold for PI based on vehicle-treated controls was used to measure acute toxicity (necrosis).
Assay ready daughter plates of the NIH Clinical Collection containing 2 μL of a 1 mM DMSO stock were reconstituted in DMEM (60 μL) to yield a 30 μM intermediate treatment concentration. 60 μl of DMSO (3%) was added to columns 1 and 24, and 60 μL of 600 nM luminespib was added to columns 2 and 23 to serve as negative and positive controls, respectively. Aliquots (15 μl) were transferred directly to cells in 384 well plates using an Agilent Bravo liquid handling robot (final concentration in assay, 10 μM). For the 1 μM condition, an aliquot of the 30 μM treatment solution was diluted 1:10 and controls added as above. Aliquots (15 μl) were transferred to cells to yield a […] final concentration. Plates were centrifuged for 30 seconds at 200×g and incubated at 37° C. After 24 hours, plates were imaged live in the GFP channel and returned to the incubator; after 48 hours cells were stained with PI, imaged live in the GFP and PI channels, and analyzed as described above. The LOPAC library was screened using the same procedure except that only the 10 μM, 48 hour condition was used.
A pilot library screen was performed using the NIH Clinical Collection in the HEK TPI^E105D-GFP cell line. The NIH Clinical Collection maintained at the UPDDI contains 446 FDA approved drugs and small molecules that have a history of use in human clinical trials. The collections were assembled through the Molecular Libraries and Imaging Initiative as part of its mission to enable the use of compound screens in biomedical research. […]

TPI^E105D-GFP = assay: High-content analysis in U2OS TPI^E105D-GFP cells; assay type: cell-based, human; conditions: 48 hours
Description: U2OS osteosarcoma cells (ATCC HTB-96) engineered to express the mutant (E105D) TN-GFP protein were generated using the identical method described above for HEK cells and maintained in McCoy's 5A medium (ThermoFisher 16600082).
(§1) FB303 cells were plated (1000/well) in a 384 well collagen-coated microplate. Cells were treated with vehicle (DMSO) or ten-point, two-fold gradients of test compounds for 48 hours in quadruplicates. Cells were fixed with 4% formaldehyde and immunostained with an anti-TPI antibody (Santa Cruz sc-30145) followed by a Cy3-conjugated goat anti-rabbit secondary (Jackson Immunoresearch). Nuclei were counterstained with Hoechst 33342 Images were acquired on an OPERA Phenix high-content imager (20× air objective, widefield, 4 fields/well) and analyzed for total cellular GFP intensity (HEK and U2OS) or total cellular Cy3 intensity (FB303) using Harmony 5.0 image analysis software (Perkin Elmer).

TPI = assay: High-content analysis of TPI levels in patient fibroblasts by immunocytochemistry; assay type: cell-based, human; conditions: 48 hours
Description: as §1

[2] = system: TPI^E105D-GFP fusion protein; assay: HEK293 TPI^E105D-GFP high content assay (GFP intensity per cell); assay type: cell-based, human; conditions: fresh repurchased samples, ten-point twofold dose-response
[3] = Luo et al. 2015; said to correlate with concentrations needed to increase TPI^E105D-GFP in HEK cells; cited from earlier work
TPI^sugarkill = assay: Isolation and visualization of poly-ubiquitinated TPI from MG132-fed flies; assay type: in vivo, Drosophila melanogaster; conditions: flies fed 1 mg/mL MG132 for 24 hours at 25° C. or 29° C.; immunoprecipitation and Western blot
Description: Conjugated anti-TPI resin was prepared with TPI antibody (FL249, Santa Cruz Biotechnology) and the Pierce co-immunoprecipitation kit. Homozygous TPI^sugarkill flies were fed 1 mg/mL MG132 (Sigma) on 10% sucrose for 24 hours at 25° C. or 29° C. Following incubation, flies were homogenized using a mechanical homogenizer in Pierce co-immunoprecipitation lysis buffer with Protease Inhibitor Mini-Tablets (Pierce), MG132 (0.1 mg/mL, Sigma) and NEM (1 μM, Sigma). Protein concentration was determined by BCA assay (Pierce). The lysates (2 mg) were incubated on a rotator overnight at 4° C. with 100 μl of the conjugated anti-TPI resin. The columns were washed three times with 200 μL of Pierce IP wash buffer with Protease Inhibitor Mini-Tablets (Pierce), MG132 (0.1 mg/mL) and 1 μM NEM. A bead only control provided by the Pierce IP kit served as a negative control. The samples were eluted into 2×SDS-PAGE sample buffer (130 mM Tris (pH 6.8), 4% SDS, 4% beta-mercaptoethanol, 20% glycerol, 0.1% bromophenol blue) with Protease Inhibitor Mini-Tablets (Pierce), MG132 (0.1 mg/mL, Sigma) and NEM (1 μM, Sigma). Western blots were conducted as described above with the exception that the blots were boiled in distilled water for 30 minutes prior to blocking. The antibody used for detection of ubiquitin was anti-ubiquitin (1:1000, 6C1 mouse Santa Cruz Biotechnology). […]

Oc1ccc(/C=C/c2cc(O)cc(O)c2)cc1 [resveratrol, 3,5,4′-trihydroxy-trans-stilbene]
hit call in LOPAC screen [1]: positive hits | dose-response confirmation of activity, total GFP levels per cell (TPI^E105D-GFP): confirmed activity | dose-response confirmation of activity, total anti-TPI fluorescence (TPI): confirmed activity | concentration dependence of TPI^E105D-GFP increase [2]: concentration-dependent increases

O=C(O)C[C@H](O)C[C@H](O)/C=C/c1c(C2CC2)nc2ccccc2c1-c1ccc(F)cc1 [itavastatin]
repeat of hit activity in every condition [1]: repeated in every condition | concentration dependence of TPI^E105D-GFP increase [2]: concentration-dependent increases | peak plasma levels in humans [3]: 0.55 µM

CC(C)C[C@H](NC(=O)[C@H](Cc1ccccc1)NC(=O)c1cnccn1)B(O)O [bortezomib]
TPI^E105D-GFP fluorescence (in words) [1]: significant increase

C[C@@H]1C[C@@H]([C@H](O)CC2CC(=O)NC(=O)C2)C(=O)[C@@H](C)C1 [cycloheximide]
TPI^E105D-GFP fluorescence (in words) [1]: significant increase

Cc1[nH]c(=O)c(C#N)cc1-c1ccncc1 [milrinone]
repeat of hit activity in every condition [1]: repeated in every condition

CC[C@H](C)C(=O)O[C@H]1CCC=C2C=C[C@H](C)[C@H](CC[C@@H]3C[C@@H](O)CC(=O)O3)[C@H]21 [mevastatin]
hit call in LOPAC screen [1]: positive hits

CC(C)C[C@@H](C=O)NC(=O)[C@H](CC(C)C)NC(=O)[C@H](CC(C)C)NC(=O)OCc1ccccc1 [MG132] (Cbz-Leu-Leu-Leu-aldehyde)
polyubiquitinated TPI^sugarkill signal (TPI^sugarkill): accumulation of polyubiquitinated signal

COc1ccccc1OCCNCC(O)COc1cccc2[nH]c3ccccc3c12 (stereo not shown) [carvedilol]
repeat of hit activity in every condition [1]: repeated in every condition

C[C@H]1[C@H](OC(=O)CCC(=O)O)O[C@@H]2O[C@@]3(C)CC[C@H]4[C@H](C)CC[C@@H]1[C@@]24OO3 [artesunate, 4-oxo-4-[[(1R,4S,5R,8S,9R,10S,12R,13R)-1,5,9-trimethyl-11,14,15,16-tetraoxatetracyclo[10.3.1.0^4,13.0^8,13]hexadecan-10-yl]oxy]butanoic acid]
repeat of hit activity in every condition [1]: repeated in every condition | dose-response confirmation of activity, total GFP levels per cell (TPI^E105D-GFP): confirmed activity | dose-response confirmation of activity, total anti-TPI fluorescence (TPI): confirmed activity
